Assay [1] deals with OVCAR-3 xenograft. Nature of the assay: human ovarian adenocarcinoma OVCAR-3 xenograft model of cancer. In kind it is in vivo, mice. The source says:
Xenograft cancer models can be employed to measure the effects of treatment of PARP and co-regulated gene modulators on cancer growth and progression.
Moreover, ovarian adenocarcinoma OVCAR-3 cells produce IGF-I and IGF-II, and express IGF1R, supporting the existence of an autocrine loop.
A general note: Xenograft models place foreign cells or tissue in a host animal.

For assay [2], the system named is MDA-MB-468 cells. Put plainly: FACS cell cycle analysis (PI DNA content), Compound III with IGF1R inhibitor. The format is cell-based, human. The note with it: for G1 / G2/M / S / Sub-G1: MDA-MB-468. The method, then: (§1) The effects of Compound III and its nitroso metabolite on the cell cycle in cancer cell lines in combination with second agents were determined.
(§2) Compound III and Compound III-1 compounds were tested in the presence of the second agent according the schedule indicated in the Table below.
(§3) Cell Culture: Triple negative MDA-MB-468 human breast carcinoma, U251 human glioblastoma and lung adenocarcinoma HCC827 cells were cultured in Dulbecco Modified Eagle Medium with 10% fetal bovine serum. Cells were plated at a seeding density 10^5 per P100 or at 10^4 per P60 in growth media and incubated 12-18 h at 37° C., 5% CO2. Compounds with and without secondary agent (see Table 1) were added as a single dose for 72 hours. DMSO was used as a control. Following treatment, cells were analyzed with BrdU ELISA Assay (Roche Applied Science), FACS based cell cycle assay or TUNEL.
(§4) Compounds: Compound III was dissolved directly from dry powder in DMSO (cat #472301, Sigma-Aldrich) for each separate experiment, then the entire volume of the stock solution was used to prepare 111 nM, 313 nM and 1 μM working concentrations in cell culture medium to avoid any possibility of precipitation and the corresponding loss of compound.
(§5) PI Exclusion, Cell Cycle and TUNEL Assays (FACS): After the addition of drugs and incubation, cells were taken for counting and PI (Propidium Iodide) exclusion assay. One part of the cells was centrifuged and resuspended in 0.5 ml ice-cold PBS containing 5 μg/ml of PI. The other part of the cells was fixed in ice-cold 70% ethanol and stored in a freezer overnight. For cell cycle analysis, cells were stained with propidium iodide (PI) using standard procedures. Cellular DNA content was determined by flow cytometry using BD LSRII FACS, and the percentages of cells in G1, S or G2/M were determined using ModFit software.

The test system of assay [3] is HCC827 cells. Put plainly: FACS cell cycle analysis (PI DNA content), Compound III with EGFR inhibitor. In kind it is cell-based, human. The method, then: as §1, §2, §3, §4, §5
The test system of assay [4] is HCC827 cells. Put plainly: TUNEL apoptosis assay (FACS), Compound III with EGFR inhibitor. The note with it: GFT 2 nM + 201 0 μM. In kind it is cell-based, human. The method, then:
as §3, §4
(§6) To detect apoptosis, the cells were labeled with the “In Situ Cell Death Detection Kit, Fluorescein” (Roche Diagnostics Corporation, Roche Applied Science, Indianapolis, Ind.). […] All cell samples were analyzed with a BD LSR II (BD Biosciences, San Jose, Calif.). […]

In assay [5] the test system is OVCAR-3 xenograft. The note with it: previous studies, Gotlieb et al., 2006; cited from earlier work.
Another assay deals with OVCAR-3 cells. The note with it: OVCAR-3 cell line, Gotlieb et al., 2006; cited from earlier work.
A further assay concerns OVCAR-4 cells. The following applies: OVCAR-4 cell line, Gotlieb et al., 2006; cited from earlier work.
The subject of a further assay is NFκB. The following applies: multiple myeloma cells, Hideshima et al., 2002; cited from earlier work.
Assay [6] has as its system MDA-MB-468 cells. Nature of the assay: BrdU labeling assay (FACS / ELISA), Compound III with IGF1R inhibitor. The format is cell-based, human. The method, then: as §3, §4
Bromodeoxyuridine (BrdU) labeling assay and FACS-based cell cycle analysis: 50 μl of BrdU (Sigma Chemical Co., St. Louis, Mo.) stock solution (1 mM) was added to achieve final concentration of 10 μM BrdU. Then cells were incubated for 30 min at 37° C. and fixed in ice-cold 70% ethanol and stored at 4° C. overnight. […] All cell samples were analyzed with a BD LSR II (BD Biosciences, San Jose, Calif.). […]
In general terms: Uptake of a labelled nucleoside into DNA is a usual measure of proliferation.

Assay [7] deals with MDA-MB-468 cells. Put plainly: TUNEL apoptosis assay (FACS), Compound III with IGF1R inhibitor. In kind it is cell-based, human. The method, then: as §3, §4, §6
Assay [8] deals with MDA-MB-468 cells. Put plainly: cell counting and PI exclusion assay (cell survival), Compound III with IGF1R inhibitor. The format is cell-based, human. The method, then: as §3, §4
PI Exclusion, Cell Cycle and TUNEL Assays (FACS): After the addition of drugs and incubation, cells were taken for counting and PI (Propidium Iodide) exclusion assay. One part of the cells was centrifuged and resuspended in 0.5 ml ice-cold PBS containing 5 μg/ml of PI. […] Cellular DNA content was determined by flow cytometry using BD LSRII FACS, and the percentages of cells in G1, S or G2/M were determined using ModFit software.

For the next assay, the system named is NF-κB. The following applies: HeLa cells; cited from earlier work.

The source of these data is patent US20090275608A1, “Methods of diagnosing and treating parp-mediated diseases” (BiPar Sciences, Inc., priority 2008, published 2009).

Entries after “also recorded” stand apart in the source; their conditions may differ.

As to `NC(=O)c1ccc(I)c([N+](=O)[O-])c1` [Compound III], the “tumor growth, combination of PARP inhibitor and IGF1R inhibitor” value with OVCAR-3 xenograft [1] (Compound III combined with NVP-AEW541, expected from the single-agent data) is “inhibit tumor growth in mice even further”. For the same molecule, in the assay with OVCAR-3 xenograft [1] (OVCAR-3 xenograft, FIG. 18), the survival of mice entry was “improve survival of mice; also recorded: improval of survival of mice”. Further, the tumor growth result with OVCAR-3 xenograft [1] (PARP1 inhibition by Compound III, OVCAR-3 xenograft in mice, FIG. 18) is “inhibit tumor growth”. For the same molecule, the “potentiation of the activity of IGF-1R inhibitor Picropodophyllin (PPP)” value with MDA-MB-468 cells [2] (triple negative breast cancer cells MDA-MB-468, FIG. 19) is “potentiates the activity of IGF-1R inhibitor Picropodophyllin (PPP)”. Also, in the assay with HCC827 cells [3] (HCC827 cell line), the “potentiation of the activity of the EGF-R inhibitor IRESSA” value was “potentiate the activity of the EGF-R inhibitor IRESSA®”.
Take `COc1cc2ncnc(Nc3ccc(F)c(Cl)c3)c2cc1OCCCN1CCOCC1` [GFT]: in the assay with HCC827 cells [3] (HCC827, GFT 2 nM + 201 0 μM), the G1 is listed as 51.0, the G2/M amounted to 9.2, the S turned out to be 34.4 and the Sub-G1 is on record as 3.4. Also, in the assay on HCC827 cells [4], the “TUNEL(+)” value worked out at 6.2.
`Nc1ncnc2c1c(-c1cccc(OCc3ccccc3)c1)cn2C1CC(CN2CCC2)C1` (stereo not shown) [NVP-AEW541]: in the assay with OVCAR-3 xenograft [5], the “growth of OVCAR-3 tumor” value is given as “can inhibit growth of OVCAR-3 tumor”. For the same molecule, the “growth of the cells” value in the assay on OVCAR-3 cells and with OVCAR-4 cells was “inhibited growth of the cells” each time.
As to `O=C(Nc1cc(Cl)cc2c1[nH]c1cnccc12)c1cccnc1` [PS-1145], the NFκB activation result in the assay with NFκB is reported as “blocked NFκB activation”.
As for `COc1cc([C@@H]2c3cc4c(cc3[C@H](O)[C@H]3COC(=O)[C@@H]23)OCO4)cc(OC)c1OC` [Picropodophyllin], the G1 with MDA-MB-468 cells [2] (PPP 200 nM + 201 0 uM) was 51.42; in the assay with MDA-MB-468 cells [2] (PPP 400 nM + 201 0 uM), 37.29. The G2/M in the assay with MDA-MB-468 cells [2] (PPP 200 nM + 201 0 uM) came to 15.01; in the assay on MDA-MB-468 cells [2] (PPP 400 nM + 201 0 uM) it was 20.17. The values for the S with MDA-MB-468 cells [2] (PPP 200 nM + 201 0 uM) and with MDA-MB-468 cells [2] (PPP 400 nM + 201 0 uM) were 30.22 and 25.32, respectively. The results for the Sub-G1 with MDA-MB-468 cells [2] (PPP 200 nM + 201 0 uM) and in the assay with MDA-MB-468 cells [2] (PPP 400 nM + 201 0 uM) were 1.22 and 7.77, respectively. In addition, the “BrdU(−) S” value with MDA-MB-468 cells [6] (PPP 200 nM + 201 0 uM) is reported as 2.13; in the assay with MDA-MB-468 cells [6] (PPP 400 nM + 201 0 uM) it was 9.45. The “TUNEL(+)” value is 0.9 with MDA-MB-468 cells [7] (PPP 200 nM + 201 0 uM) and 4.1 with MDA-MB-468 cells [7] (PPP 400 nM + 201 0 uM). Also, the “Vital Cell” value with MDA-MB-468 cells [8] (PPP 200 nM + 201 0 uM) is recorded as 89; in the assay with MDA-MB-468 cells [8] (PPP 400 nM + 201 0 uM), 60.
Turning to `CCc1c2c(nc3ccc(O)cc13)-c1cc3c(c(=O)n1C2)COC(=O)[C@]3(O)CC` [SN38, 7-ethyl-10-hydroxycamptothecin], the “NF-κB nuclear translocation and activation of NF-κB target genes” value with NF-κB is “induce NF-κB nuclear translocation and activation of NF-κB target genes”.
For `CC(C)C[C@H](NC(=O)[C@H](Cc1ccccc1)NC(=O)c1cnccn1)B(O)O` [bortezomib], in the assay on NFκB, the NFκB activation result is recorded as “blocked NFκB activation”.
Regarding `COc1cccc2c1C(=O)c1c(O)c3c(c(O)c1C2=O)C[C@@](O)(C(=O)CO)C[C@@H]3O[C@H]1C[C@H](N)[C@H](O)[C@H](C)O1` [doxorubicin], the “NF-κB nuclear translocation and activation of NF-κB target genes” value in the assay with NF-κB is “induce NF-κB nuclear translocation and activation of NF-κB target genes”.
